Values of other authors, collected in US20030109488A1, “Methods for treating dry eye” (Alcon, Inc., priority 2001, published 2003).

Tested on: human conjunctival epithelial cells
Conditions: background statement, no data given

CCCCC[C@H](O)/C=C/C=C\C/C=C\C/C=C\CCCC(=O)O [15-HETE]
secretion of mucin-1 (MUC-1): increase the secretion of mucin-1 (MUC-1)
